Measurements as given in publication PMC10174618, “Monoterpenoid aryl hydrocarbon receptor allosteric antagonists protect against ultraviolet skin damage in female mice” (Nature Communications, 2023).

Assays:
Experiment in all cases: biochemical
Set-up in all cases: KINOMEscan scanMAX active site-directed competition binding assay, percent of control, 468 kinases
Settings in all cases: competition binding, percent of control
ABL2 = ABL2 (Homo sapiens, UniProt P42684)
How it was run: (§1)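 Single-concentration screen (100 μM S-carvone) in a competition binding panel of 468 human kinases (KINOMEscan scanMAX); results given as percent of control, hit cutoff 35%.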

ACVR2B = ACVR2B (Homo sapiens, UniProt Q13705)
How it was run: as §1

BUB1 = BUB1 (Homo sapiens, UniProt O43683)
How it was run: as §1

CDC2L2 = biological target: T1, CDC2L2 (Homo sapiens, UniProt Q9UQ88)
T1 construct: gene CDK11A
How it was run: as §1

CLK4 = CLK4 (Homo sapiens, UniProt Q9HAZ1)
How it was run: as §1

CSNK2A1 = CSNK2A1 (Homo sapiens, UniProt P68400)
How it was run: as §1

EGFR(G719C) = EGFR(G719C) (Homo sapiens, UniProt P00533, G719C)
How it was run: as §1

FLT3(ITD) = FLT3(ITD) (Homo sapiens, UniProt P36888, ITD)
How it was run: as §1

FLT3(ITD,D835V) = FLT3(ITD,D835V) (Homo sapiens, UniProt P36888, D835V/ITD)
How it was run: as §1

INSR = INSR (Homo sapiens, UniProt P06213)
How it was run: as §1

IRAK3 = IRAK3 (Homo sapiens, UniProt Q9Y616)
How it was run: as §1

ITK = ITK (Homo sapiens, UniProt Q08881)
How it was run: as §1

LCK = LCK (Homo sapiens, UniProt P06239)
How it was run: as §1

MLCK = biological target: T2, MLCK (Homo sapiens, UniProt Q32MK0)
T2 construct: gene MYLK3
How it was run: as §1

PIK3CA(E542K) = PIK3CA(E542K) (Homo sapiens, UniProt P42336, E542K)
How it was run: as §1

[1] = biological target: T3, RSK3(Kin.Dom.1-N-terminal) (Homo sapiens, UniProt Q15349)
T3 construct: gene RPS6KA2; Kin.Dom.1-N-terminal
How it was run: as §1

SIK = biological target: T4, SIK (Homo sapiens, UniProt P57059)
T4 construct: gene SIK1
How it was run: as §1

STK35 = STK35 (Homo sapiens, UniProt Q8TDR2)
How it was run: as §1

TNIK = TNIK (Homo sapiens, UniProt Q9UKE5)
How it was run: as §1

YANK3 = biological target: T5, YANK3 (Homo sapiens, UniProt Q86UX6)
T5 construct: gene STK32C
How it was run: as §1

p38-gamma = biological target: T6, p38-gamma (Homo sapiens, UniProt P53778)
T6 construct: gene MAPK12
How it was run: as §1

T3 sequence (Q15349 whole entry): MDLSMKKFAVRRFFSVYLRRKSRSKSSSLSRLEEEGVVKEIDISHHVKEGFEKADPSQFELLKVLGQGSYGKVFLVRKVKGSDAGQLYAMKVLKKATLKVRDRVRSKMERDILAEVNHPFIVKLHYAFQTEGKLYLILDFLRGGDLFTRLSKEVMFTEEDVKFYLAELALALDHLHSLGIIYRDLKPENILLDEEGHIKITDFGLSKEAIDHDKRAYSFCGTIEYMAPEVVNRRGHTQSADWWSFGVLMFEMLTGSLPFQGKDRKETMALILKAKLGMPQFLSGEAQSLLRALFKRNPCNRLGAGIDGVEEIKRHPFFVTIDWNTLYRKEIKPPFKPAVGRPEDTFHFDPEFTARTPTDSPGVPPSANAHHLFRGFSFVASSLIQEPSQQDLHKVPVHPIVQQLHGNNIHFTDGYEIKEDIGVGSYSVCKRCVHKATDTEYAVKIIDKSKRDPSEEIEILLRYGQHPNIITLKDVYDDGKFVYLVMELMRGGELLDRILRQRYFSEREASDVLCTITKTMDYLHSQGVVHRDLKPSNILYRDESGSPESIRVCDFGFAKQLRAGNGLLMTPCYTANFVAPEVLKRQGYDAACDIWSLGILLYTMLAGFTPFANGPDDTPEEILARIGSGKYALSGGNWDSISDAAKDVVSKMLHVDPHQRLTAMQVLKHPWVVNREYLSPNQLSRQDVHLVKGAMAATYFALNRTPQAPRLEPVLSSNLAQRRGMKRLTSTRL
T5 sequence (Q86UX6 whole entry): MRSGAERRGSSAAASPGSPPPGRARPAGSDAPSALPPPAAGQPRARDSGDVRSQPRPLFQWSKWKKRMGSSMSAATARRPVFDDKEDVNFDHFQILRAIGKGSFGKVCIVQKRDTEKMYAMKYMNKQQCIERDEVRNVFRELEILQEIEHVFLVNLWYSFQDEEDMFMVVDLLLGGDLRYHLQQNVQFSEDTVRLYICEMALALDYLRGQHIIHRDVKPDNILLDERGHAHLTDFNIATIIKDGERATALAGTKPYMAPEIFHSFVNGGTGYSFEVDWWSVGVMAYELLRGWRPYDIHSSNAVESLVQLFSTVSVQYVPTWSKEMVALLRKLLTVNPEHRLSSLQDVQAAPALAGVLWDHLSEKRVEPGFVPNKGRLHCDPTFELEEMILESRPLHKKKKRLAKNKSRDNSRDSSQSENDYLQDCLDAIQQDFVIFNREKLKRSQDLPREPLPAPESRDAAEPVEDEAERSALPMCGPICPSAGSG
PIK3CA(E542K), sequence (P42336 whole entry E542K): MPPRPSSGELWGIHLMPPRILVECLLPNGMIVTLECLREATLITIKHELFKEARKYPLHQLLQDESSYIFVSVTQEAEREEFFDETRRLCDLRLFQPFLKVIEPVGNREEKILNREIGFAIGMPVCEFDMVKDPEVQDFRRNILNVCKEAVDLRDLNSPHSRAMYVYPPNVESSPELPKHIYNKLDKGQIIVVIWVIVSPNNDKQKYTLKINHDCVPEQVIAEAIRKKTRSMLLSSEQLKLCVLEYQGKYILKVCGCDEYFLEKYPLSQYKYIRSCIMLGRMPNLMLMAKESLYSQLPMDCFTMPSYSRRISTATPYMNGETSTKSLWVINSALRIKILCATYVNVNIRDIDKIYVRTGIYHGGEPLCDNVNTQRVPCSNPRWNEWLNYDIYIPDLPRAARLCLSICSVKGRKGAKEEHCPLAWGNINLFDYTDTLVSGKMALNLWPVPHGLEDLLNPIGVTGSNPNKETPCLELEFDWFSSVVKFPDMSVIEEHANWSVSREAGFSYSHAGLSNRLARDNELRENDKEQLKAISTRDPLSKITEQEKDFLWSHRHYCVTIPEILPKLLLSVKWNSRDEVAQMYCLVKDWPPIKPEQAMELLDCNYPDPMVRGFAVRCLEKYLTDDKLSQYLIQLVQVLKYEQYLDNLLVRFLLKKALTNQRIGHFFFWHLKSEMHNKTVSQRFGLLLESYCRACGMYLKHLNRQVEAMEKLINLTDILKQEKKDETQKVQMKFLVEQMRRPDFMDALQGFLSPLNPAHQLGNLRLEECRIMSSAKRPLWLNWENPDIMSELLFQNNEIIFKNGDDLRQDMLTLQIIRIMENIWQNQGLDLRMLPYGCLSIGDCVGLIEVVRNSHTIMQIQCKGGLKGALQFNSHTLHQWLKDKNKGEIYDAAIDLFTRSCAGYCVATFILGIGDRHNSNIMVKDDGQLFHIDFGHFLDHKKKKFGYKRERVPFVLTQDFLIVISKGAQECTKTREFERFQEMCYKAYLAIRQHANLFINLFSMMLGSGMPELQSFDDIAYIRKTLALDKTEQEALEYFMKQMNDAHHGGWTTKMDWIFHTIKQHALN
TNIK, sequence (Q9UKE5 whole entry): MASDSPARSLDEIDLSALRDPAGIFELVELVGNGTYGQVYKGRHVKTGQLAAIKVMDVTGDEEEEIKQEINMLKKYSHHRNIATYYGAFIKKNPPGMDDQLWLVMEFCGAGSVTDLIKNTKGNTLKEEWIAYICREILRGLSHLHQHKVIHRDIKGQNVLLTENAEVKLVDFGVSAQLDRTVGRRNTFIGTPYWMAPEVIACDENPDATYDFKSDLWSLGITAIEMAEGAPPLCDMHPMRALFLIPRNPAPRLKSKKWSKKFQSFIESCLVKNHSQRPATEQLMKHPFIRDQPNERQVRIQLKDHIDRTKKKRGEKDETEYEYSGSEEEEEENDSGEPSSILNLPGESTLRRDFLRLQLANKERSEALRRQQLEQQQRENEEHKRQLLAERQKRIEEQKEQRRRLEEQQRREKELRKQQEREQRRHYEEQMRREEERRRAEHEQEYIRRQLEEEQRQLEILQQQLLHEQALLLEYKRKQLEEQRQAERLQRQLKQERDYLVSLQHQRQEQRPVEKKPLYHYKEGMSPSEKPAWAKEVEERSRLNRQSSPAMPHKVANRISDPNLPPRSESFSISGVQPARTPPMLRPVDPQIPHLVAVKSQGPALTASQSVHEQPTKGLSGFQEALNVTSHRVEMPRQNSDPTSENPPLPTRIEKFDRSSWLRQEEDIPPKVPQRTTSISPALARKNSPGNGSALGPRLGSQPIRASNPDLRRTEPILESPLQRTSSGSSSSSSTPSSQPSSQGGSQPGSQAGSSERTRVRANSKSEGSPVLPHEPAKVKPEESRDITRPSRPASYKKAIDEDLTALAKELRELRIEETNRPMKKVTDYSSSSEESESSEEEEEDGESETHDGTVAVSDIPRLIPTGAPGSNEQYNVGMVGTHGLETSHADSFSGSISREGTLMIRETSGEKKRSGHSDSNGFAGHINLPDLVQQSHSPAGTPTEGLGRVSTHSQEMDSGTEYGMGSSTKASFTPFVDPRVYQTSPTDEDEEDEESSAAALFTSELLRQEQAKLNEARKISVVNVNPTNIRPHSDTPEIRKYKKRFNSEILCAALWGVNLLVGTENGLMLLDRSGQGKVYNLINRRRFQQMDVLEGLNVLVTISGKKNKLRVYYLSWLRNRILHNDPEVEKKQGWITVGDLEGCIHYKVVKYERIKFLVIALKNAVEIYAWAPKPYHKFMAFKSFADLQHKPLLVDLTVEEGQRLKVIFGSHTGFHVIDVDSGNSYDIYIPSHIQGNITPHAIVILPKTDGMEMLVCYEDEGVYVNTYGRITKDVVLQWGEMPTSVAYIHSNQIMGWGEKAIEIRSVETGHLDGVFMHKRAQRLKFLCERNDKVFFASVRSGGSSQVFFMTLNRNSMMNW
ITK, sequence (Q08881 whole entry): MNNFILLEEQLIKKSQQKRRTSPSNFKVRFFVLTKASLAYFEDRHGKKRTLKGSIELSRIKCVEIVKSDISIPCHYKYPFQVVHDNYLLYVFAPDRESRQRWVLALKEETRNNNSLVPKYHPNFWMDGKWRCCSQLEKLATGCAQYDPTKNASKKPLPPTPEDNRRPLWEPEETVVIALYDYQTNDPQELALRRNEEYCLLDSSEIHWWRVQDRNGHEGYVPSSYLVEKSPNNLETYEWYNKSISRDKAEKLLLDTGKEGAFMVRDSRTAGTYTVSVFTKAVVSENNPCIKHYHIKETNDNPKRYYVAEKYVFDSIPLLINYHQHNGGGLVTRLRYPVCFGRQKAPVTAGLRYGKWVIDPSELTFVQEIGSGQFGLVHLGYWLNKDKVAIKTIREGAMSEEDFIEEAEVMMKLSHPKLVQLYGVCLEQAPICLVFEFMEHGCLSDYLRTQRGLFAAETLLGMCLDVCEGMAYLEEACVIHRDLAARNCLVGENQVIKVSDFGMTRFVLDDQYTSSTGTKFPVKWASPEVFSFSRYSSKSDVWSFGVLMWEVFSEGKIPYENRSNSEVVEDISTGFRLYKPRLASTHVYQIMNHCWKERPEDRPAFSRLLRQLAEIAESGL
T6 sequence (P53778 whole entry): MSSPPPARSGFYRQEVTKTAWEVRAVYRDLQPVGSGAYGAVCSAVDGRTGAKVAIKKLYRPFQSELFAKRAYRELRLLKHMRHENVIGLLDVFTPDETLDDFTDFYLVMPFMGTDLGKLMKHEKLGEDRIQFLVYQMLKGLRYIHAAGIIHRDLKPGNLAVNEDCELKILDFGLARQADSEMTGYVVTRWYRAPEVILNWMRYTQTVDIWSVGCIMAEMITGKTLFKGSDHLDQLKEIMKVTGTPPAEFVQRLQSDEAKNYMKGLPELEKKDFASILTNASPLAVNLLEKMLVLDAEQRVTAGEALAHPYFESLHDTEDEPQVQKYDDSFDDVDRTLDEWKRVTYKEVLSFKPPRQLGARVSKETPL
CSNK2A1, sequence (P68400 whole entry): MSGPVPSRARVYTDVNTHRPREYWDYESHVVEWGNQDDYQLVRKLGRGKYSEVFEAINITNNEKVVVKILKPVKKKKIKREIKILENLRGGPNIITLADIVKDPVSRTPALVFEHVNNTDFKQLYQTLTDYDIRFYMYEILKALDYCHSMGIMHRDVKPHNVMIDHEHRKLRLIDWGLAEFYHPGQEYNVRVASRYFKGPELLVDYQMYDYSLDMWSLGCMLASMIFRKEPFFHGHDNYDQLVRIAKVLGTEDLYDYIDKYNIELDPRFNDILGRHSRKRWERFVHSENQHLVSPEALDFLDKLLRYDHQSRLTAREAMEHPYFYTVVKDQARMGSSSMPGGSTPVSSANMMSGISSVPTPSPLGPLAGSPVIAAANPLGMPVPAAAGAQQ

remaining binding at 100 µM (ABL2): 85% | remaining binding at 100 µM (ACVR2B): 75% | remaining binding at 100 µM (BUB1): 85% | remaining binding at 100 µM (CDC2L2): 82% | remaining binding at 100 µM (CLK4): 91% | remaining binding at 100 µM (CSNK2A1): 71% | remaining binding at 100 µM (EGFR(G719C)): 74% | remaining binding at 100 µM (FLT3(ITD)): 92% | remaining binding at 100 µM (FLT3(ITD,D835V)): 85% | remaining binding at 100 µM (INSR): 68% | remaining binding at 100 µM (IRAK3): 100% | remaining binding at 100 µM (ITK): 87% | remaining binding at 100 µM (LCK): 71% | remaining binding at 100 µM (MLCK): 98% | remaining binding at 100 µM (PIK3CA(E542K)): 70% | remaining binding at 100 µM [1]: 94% | remaining binding at 100 µM (SIK): 67% | remaining binding at 100 µM (STK35): 92% | remaining binding at 100 µM (TNIK): 84% | remaining binding at 100 µM (YANK3): 91% | remaining binding at 100 µM (p38-gamma): 72%
SMILES: C=C(C)[C@H]1CC=C(C)C(=O)C1 [S-carvone]
